Laboratory results as given in article PMC5218480 (PLoS ONE, 2017).

Test system: MV-4-11 cells
Assay: Gene expression microarray analysis (Affymetrix PrimeView) and GSEA
Format: cell-based, human
Design: RFU PODN (11730768_x_at) / Fold change /veh PODN (11730768_x_at) / RFU LINC00158 (11744669_a_at) / Fold change /veh LINC00158 (11744669_a_at) / RFU DUSP10 (11751237_a_at) / Fold change /veh DUSP10 (11751237_a_at) / RFU ID3 (11757404_x_at) / Fold change /veh ID3 (11757404_x_at) / RFU PLEKHG5 (11737974_s_at) / Fold change /veh PLEKHG5 (11737974_s_at) / RFU LRRC4B (11730491_at) / Fold change /veh LRRC4B (11730491_at) / RFU GIMAP4 (11747438_a_at) / Fold change /veh GIMAP4 (11747438_a_at) / RFU KRT8 (11758183_x_at) / Fold change /veh KRT8 (11758183_x_at) / RFU CNN1 (11734310_a_at) / Fold change /veh CNN1 (11734310_a_at) / RFU VPS37D (11726825_at) / Fold change /veh VPS37D (11726825_at) / RFU C10orf10 (11716522_x_at) / Fold change /veh C10orf10 (11716522_x_at) / RFU KIR2DL2 /// KIR2DL4 /// KIR2DL5A /// KIR2DL5B /// KIR2DS1 /// KIR2DS2 /// KIR2DS3 /// KIR2DS4 /// KIR3DL3 /// KIR3DL3 /// KIR3DS1 (11738374_at) / Fold change /veh KIR2DL2 /// KIR2DL4 /// KIR2DL5A /// KIR2DL5B /// KIR2DS1 /// KIR2DS2 /// KIR2DS3 /// KIR2DS4 /// KIR3DL3 /// KIR3DL3 /// KIR3DS1 (11738374_at) / RFU C1QL1 (11718748_at) / Fold change /veh C1QL1 (11718748_at) / RFU TMPRSS4 (11747572_a_at) / Fold change /veh TMPRSS4 (11747572_a_at) / RFU HAMP (11756126_x_at) / Fold change /veh HAMP (11756126_x_at) / RFU RNFT2 (11725882_a_at) / Fold change /veh RNFT2 (11725882_a_at) / RFU NR4A2 (11747474_a_at) / Fold change /veh NR4A2 (11747474_a_at) / RFU ABCC12 (11746883_a_at) / Fold change /veh ABCC12 (11746883_a_at) / RFU TMEM136 (11760407_x_at) / Fold change /veh TMEM136 (11760407_x_at) / RFU CLDN22 /// WWC2 (11732394_at) / Fold change /veh CLDN22 /// WWC2 (11732394_at) / RFU HLA-DPB1 (11760878_x_at) / Fold change /veh HLA-DPB1 (11760878_x_at) / RFU SPINT1 (11716480_a_at) / Fold change /veh SPINT1 (11716480_a_at) / RFU GAP43 (11754022_s_at) / Fold change /veh GAP43 (11754022_s_at) / RFU A4GNT (11735810_at) / Fold change /veh A4GNT (11735810_at) / RFU PRB3 (11715151_x_at) / Fold change /veh PRB3 (11715151_x_at) / RFU TUBB4B (11761932_at) / Fold change /veh TUBB4B (11761932_at) / RFU CAPN14 (11732068_a_at) / Fold change /veh CAPN14 (11732068_a_at) / RFU TMCC2 (11721928_a_at) / Fold change /veh TMCC2 (11721928_a_at) / RFU IRGQ (11745062_a_at) / Fold change /veh IRGQ (11745062_a_at) / RFU FAM174B (11720279_a_at) / Fold change /veh FAM174B (11720279_a_at) / RFU TMPRSS4 (11748680_a_at) / Fold change /veh TMPRSS4 (11748680_a_at) / RFU FAM212B (11763350_a_at) / Fold change /veh FAM212B (11763350_a_at) / RFU PLEKHG5 (11743358_a_at) / Fold change /veh PLEKHG5 (11743358_a_at) / RFU ZSCAN30 (11745921_a_at) / Fold change /veh ZSCAN30 (11745921_a_at) / RFU CMKLR1 (11741424_a_at) / Fold change /veh CMKLR1 (11741424_a_at) / RFU LOC101060620 /// MAPK8IP1 (11723275_at) / Fold change /veh LOC101060620 /// MAPK8IP1 (11723275_at) / RFU SPTSSB (11747773_x_at) / Fold change /veh SPTSSB (11747773_x_at) / RFU PRSS12 (11739890_at) / Fold change /veh PRSS12 (11739890_at) / RFU BIN1 (11741810_x_at) / Fold change /veh BIN1 (11741810_x_at) / RFU WNT11 (11732464_a_at) / Fold change /veh WNT11 (11732464_a_at) / RFU C10orf10 (11716521_a_at) / Fold change /veh C10orf10 (11716521_a_at) / RFU C5orf56 (11738089_at) / Fold change /veh C5orf56 (11738089_at) / RFU CYB561 (11721691_x_at) / Fold change /veh CYB561 (11721691_x_at) / RFU ANKRD19P (11752326_a_at) / Fold change /veh ANKRD19P (11752326_a_at) / RFU OR2T12 /// OR2T33 /// OR2T8 (11738714_s_at) / Fold change /veh OR2T12 /// OR2T33 /// OR2T8 (11738714_s_at) / RFU VCAN (11748164_a_at) / Fold change /veh VCAN (11748164_a_at) / RFU JSRP1 (11732532_at) / Fold change /veh JSRP1 (11732532_at) / RFU KRTAP10-11 (11738290_x_at) / Fold change /veh KRTAP10-11 (11738290_x_at) / RFU MYO3A (11730013_a_at) / Fold change /veh MYO3A (11730013_a_at) / RFU EBF3 (11725865_a_at) / Fold change /veh EBF3 (11725865_a_at) / RFU CAMK2N1 (11719241_x_at) / Fold change /veh CAMK2N1 (11719241_x_at) / RFU C5orf56 (11738088_a_at) / Fold change /veh C5orf56 (11738088_a_at) / RFU OLFML3 (11715873_a_at) / Fold change /veh OLFML3 (11715873_a_at) / RFU LOC100653217 /// NTM (11731650_a_at) / Fold change /veh LOC100653217 /// NTM (11731650_a_at) / RFU MAPK11 (11762145_a_at) / Fold change /veh MAPK11 (11762145_a_at) / RFU FIZ1 (11724087_x_at) / Fold change /veh FIZ1 (11724087_x_at) / RFU OASL (11726364_x_at) / Fold change /veh OASL (11726364_x_at) / RFU SOX15 (11748057_x_at) / Fold change /veh SOX15 (11748057_x_at) / RFU CD79A (11719716_a_at) / Fold change /veh CD79A (11719716_a_at) / RFU HIST1H1D (11736915_at) / Fold change /veh HIST1H1D (11736915_at) / RFU CASKIN2 (11723855_a_at) / Fold change /veh CASKIN2 (11723855_a_at) / RFU LOC730098 (11760151_x_at) / Fold change /veh LOC730098 (11760151_x_at) / RFU OR4N2 (11742367_at) / Fold change /veh OR4N2 (11742367_at) / RFU PRRT2 (11749266_a_at) / Fold change /veh PRRT2 (11749266_a_at) / RFU SNX32 (11753110_a_at) / Fold change /veh SNX32 (11753110_a_at) / RFU CDHR5 (11726645_a_at) / Fold change /veh CDHR5 (11726645_a_at) / RFU RCAN1 (11760418_a_at) / Fold change /veh RCAN1 (11760418_a_at) / RFU FAM167A (11723789_a_at) / Fold change /veh FAM167A (11723789_a_at) / RFU FAM26E (11764081_at) / Fold change /veh FAM26E (11764081_at) / RFU ISYNA1 (11749810_s_at) / Fold change /veh ISYNA1 (11749810_s_at) / RFU ACY1 (11761880_at) / Fold change /veh ACY1 (11761880_at) / RFU 11764098_at / Fold change /veh 11764098_at / RFU SAMD14 (11745864_x_at) / Fold change /veh SAMD14 (11745864_x_at) / RFU NPB (11741838_a_at) / Fold change /veh NPB (11741838_a_at) / RFU TMPRSS6 (11731388_a_at) / Fold change /veh TMPRSS6 (11731388_a_at) / RFU KRTAP10-2 (11738614_at) / Fold change /veh KRTAP10-2 (11738614_at) / RFU ARHGAP8 /// PRR5-ARHGAP8 (11727945_x_at) / Fold change /veh ARHGAP8 /// PRR5-ARHGAP8 (11727945_x_at) / RFU KRTAP5-7 /// NADSYN1 (11734609_at) / Fold change /veh KRTAP5-7 /// NADSYN1 (11734609_at) / RFU RASL12 (11751679_a_at) / Fold change /veh RASL12 (11751679_a_at) / RFU CDKN2B (11736163_a_at) / Fold change /veh CDKN2B (11736163_a_at) / RFU PRF1 (11729649_at) / Fold change /veh PRF1 (11729649_at) / RFU, ZNF638 /// ZNF638-IT1 / Fold change vs veh, ZNF638 /// ZNF638-IT1 / RFU, PANK3 / Fold change vs veh, PANK3 / RFU, SH3YL1 / Fold change vs veh, SH3YL1 / RFU, ZEB2 / Fold change vs veh, ZEB2 / RFU, NRIP1 / Fold change vs veh, NRIP1 / RFU, PTTG1IP / Fold change vs veh, PTTG1IP / RFU, CAPN2 / Fold change vs veh, CAPN2 / RFU, MED14 / Fold change vs veh, MED14 / RFU, SNORA58 / Fold change vs veh, SNORA58 / RFU, C1orf63 / Fold change vs veh, C1orf63 / RFU, LRRFIP1 / Fold change vs veh, LRRFIP1 / RFU, NDUFAF7 / Fold change vs veh, NDUFAF7 / RFU, SLC12A2 / Fold change vs veh, SLC12A2 / RFU, IBTK / Fold change vs veh, IBTK / RFU, ESF1 / Fold change vs veh, ESF1 / Fold change vs veh, TMEM50B / RFU, TAOK1 / Fold change vs veh, TAOK1 / RFU, ACBD3 / Fold change vs veh, ACBD3 / RFU, TMA16 / Fold change vs veh, TMA16 / RFU, RWDD3 / Fold change vs veh, RWDD3 / RFU, BCAT1 / Fold change vs veh, BCAT1 / RFU, EDEM3 / Fold change vs veh, EDEM3 / RFU, TMEM33 / Fold change vs veh, TMEM33 / RFU, WDR75 / Fold change vs veh, WDR75 / RFU, AHCTF1 / Fold change vs veh, AHCTF1 / RFU, TFRC / Fold change vs veh, TFRC / RFU, ZDHHC17 / Fold change vs veh, ZDHHC17 / RFU, NOM1 / Fold change vs veh, NOM1 / RFU, ARL8B / Fold change vs veh, ARL8B / RFU, ZBTB11 / Fold change vs veh, ZBTB11 / RFU, TAMM41 / Fold change vs veh, TAMM41 / RFU, KIAA1704 /// LOC100996395 / Fold change vs veh, KIAA1704 /// LOC100996395 / RFU, ING1 / Fold change vs veh, ING1 / RFU, TRMT61B / Fold change vs veh, TRMT61B / RFU, FUBP3 / Fold change vs veh, FUBP3 / RFU, TP53 / Fold change vs veh, TP53 / RFU, TNKS2 / Fold change vs veh, TNKS2 / RFU, ZFP14 / Fold change vs veh, ZFP14 / RFU, ACTR2 / Fold change vs veh, ACTR2 / RFU, PPP3R1 / Fold change vs veh, PPP3R1 / RFU, PIK3R1 / Fold change vs veh, PIK3R1 / RFU, HNRNPA1 / Fold change vs veh, HNRNPA1 / RFU, RNF170 / Fold change vs veh, RNF170 / RFU, ZNF28 / Fold change vs veh, ZNF28 / RFU, RNGTT / Fold change vs veh, RNGTT / RFU, OGT / Fold change vs veh, OGT / RFU, BRD1 / Fold change vs veh, BRD1 / RFU, MARS / Fold change vs veh, MARS / RFU, ZNF655 / Fold change vs veh, ZNF655 / RFU, FAHD1 / Fold change vs veh, FAHD1 / RFU, BDP1 / Fold change vs veh, BDP1 / RFU, LRRCC1 / Fold change vs veh, LRRCC1 / RFU, ARID1A / Fold change vs veh, ARID1A / RFU, ZNF146 / Fold change vs veh, ZNF146 / RFU, ZNF330 / Fold change vs veh, ZNF330 / RFU, GPN3 / Fold change vs veh, GPN3 / RFU, C9orf123 / Fold change vs veh, C9orf123 / RFU, N4BP2L2 / Fold change vs veh, N4BP2L2 / RFU, ARFIP1 / Fold change vs veh, ARFIP1 / RFU, FAM179B / Fold change vs veh, FAM179B / RFU, BCL10 / Fold change vs veh, BCL10 / RFU, UHRF1BP1L / Fold change vs veh, UHRF1BP1L / RFU, BET1 / Fold change vs veh, BET1 / RFU, CNOT2 / Fold change vs veh, CNOT2 / RFU, ZNF268 / Fold change vs veh, ZNF268 / Fold change vs veh, ZNF507 / RFU, DGCR2 / Fold change vs veh, DGCR2 / RFU, WDSUB1 / Fold change vs veh, WDSUB1 / Fold change vs veh, HSP90B1 /// MIR3652 / RFU, ADSS / Fold change vs veh, ADSS / RFU, GK / Fold change vs veh, GK / RFU, ZNF148 / Fold change vs veh, ZNF148 / RFU, TAF9 / Fold change vs veh, TAF9 / RFU, SLC1A5 / Fold change vs veh, SLC1A5 / RFU, SLMO2 / Fold change vs veh, SLMO2 / RFU, ABCC4 / Fold change vs veh, ABCC4 / RFU, LOC101060439 /// RAP1B / Fold change vs veh, LOC101060439 /// RAP1B / RFU, RFX7 / Fold change vs veh, RFX7 / RFU, GTPBP10 / Fold change vs veh, GTPBP10 / RFU, CNEP1R1 / Fold change vs veh, CNEP1R1 / RFU, BIVM-ERCC5 /// ERCC5 / Fold change vs veh, BIVM-ERCC5 /// ERCC5 / RFU, ILF3 / Fold change vs veh, ILF3 / RFU 11762660_at / Fold change /veh 11762660_at / RFU VCAN (11757783_s_at) / Fold change /veh VCAN (11757783_s_at) / RFU DDX43 (11728927_at) / Fold change /veh DDX43 (11728927_at) / RFU KRT8 (11758188_x_at) / Fold change /veh KRT8 (11758188_x_at) / RFU NKD1 (11759106_at) / Fold change /veh NKD1 (11759106_at) / RFU SRD5A1 (11742802_a_at) / Fold change /veh SRD5A1 (11742802_a_at) / RFU TPSAB1 /// TPSB2 (11721975_s_at) / Fold change /veh TPSAB1 /// TPSB2 (11721975_s_at) / RFU GSTM3 (11746129_a_at) / Fold change /veh GSTM3 (11746129_a_at) / RFU IL23R (11737362_x_at) / Fold change /veh IL23R (11737362_x_at) / RFU TMEM51 (11727254_a_at) / Fold change /veh TMEM51 (11727254_a_at) / RFU PIWIL2 (11732686_x_at) / Fold change /veh PIWIL2 (11732686_x_at) / RFU ORM1 (11744905_x_at) / Fold change /veh ORM1 (11744905_x_at) / RFU CCDC152 (11743942_at) / Fold change /veh CCDC152 (11743942_at) / RFU ECM1 (11717891_a_at) / Fold change /veh ECM1 (11717891_a_at) / RFU IL23R (11748794_a_at) / Fold change /veh IL23R (11748794_a_at) / RFU TNFAIP8L3 (11732012_x_at) / Fold change /veh TNFAIP8L3 (11732012_x_at) / RFU MBOAT4 (11741988_at) / Fold change /veh MBOAT4 (11741988_at) / RFU 11764193_at / Fold change /veh 11764193_at / RFU TMEM53 (11763286_at) / Fold change /veh TMEM53 (11763286_at) / RFU MAGEB2 (11727129_at) / Fold change /veh MAGEB2 (11727129_at) / RFU TMEM200A (11744735_a_at) / Fold change /veh TMEM200A (11744735_a_at) / RFU CCDC152 (11751479_a_at) / Fold change /veh CCDC152 (11751479_a_at) / RFU FAM211A (11726209_a_at) / Fold change /veh FAM211A (11726209_a_at) / RFU RGS16 (11746705_a_at) / Fold change /veh RGS16 (11746705_a_at) / RFU VCAN (11755009_s_at) / Fold change /veh VCAN (11755009_s_at) / RFU RHOB (11743442_s_at) / Fold change /veh RHOB (11743442_s_at) / RFU RGS16 (11720943_a_at) / Fold change /veh RGS16 (11720943_a_at) / RFU RGS16 (11720944_at) / Fold change /veh RGS16 (11720944_at) / RFU, VPS4B / Fold change vs veh, VPS4B / RFU, CREB1 / Fold change vs veh, CREB1 / RFU, DNAJC13 / Fold change vs veh, DNAJC13 / RFU, GNAQ / Fold change vs veh, GNAQ / RFU, CDK5R1 / Fold change vs veh, CDK5R1 / RFU, ZRANB3 / Fold change vs veh, ZRANB3 / RFU, CUL4A / Fold change vs veh, CUL4A / RFU, CCNY / Fold change vs veh, CCNY / RFU, UFL1 / Fold change vs veh, UFL1 / RFU, COG3 / Fold change vs veh, COG3 / RFU, DIAPH2 / Fold change vs veh, DIAPH2 / RFU, SKA2 / Fold change vs veh, SKA2 / RFU, AFF3 / Fold change vs veh, AFF3 / RFU, LMF1 / Fold change vs veh, LMF1 / RFU, IPO11 / Fold change vs veh, IPO11 / RFU, DFFB / Fold change vs veh, DFFB / RFU, FOXP1 / Fold change vs veh, FOXP1 / RFU, CARD8 / Fold change vs veh, CARD8 / RFU, STRN3 / Fold change vs veh, STRN3 / RFU, ADK / Fold change vs veh, ADK / RFU, RASSF2 / Fold change vs veh, RASSF2 / RFU, WIPF1 / Fold change vs veh, WIPF1 / RFU, LARP1B / Fold change vs veh, LARP1B / RFU, RASA1 / Fold change vs veh, RASA1 / RFU, RB1 / Fold change vs veh, RB1 / RFU, PPFIA1 / Fold change vs veh, PPFIA1 / RFU, MAT2A / Fold change vs veh, MAT2A / RFU, CCT5 / Fold change vs veh, CCT5 / RFU, WDR92 / Fold change vs veh, WDR92 / RFU, CUX1 / Fold change vs veh, CUX1 / RFU, TTC7A / Fold change vs veh, TTC7A / RFU, TMEM135 / Fold change vs veh, TMEM135 / RFU, DEPTOR / Fold change vs veh, DEPTOR / RFU, CPM / Fold change vs veh, CPM / RFU, DNAJB6 / Fold change vs veh, DNAJB6 / RFU, CACNA2D3 / Fold change vs veh, CACNA2D3 / RFU, DTX4 / Fold change vs veh, DTX4 / RFU, TFCP2 / Fold change vs veh, TFCP2 / RFU, GMCL1 /// GMCL1P1 / Fold change vs veh, GMCL1 /// GMCL1P1 / RFU, AEBP2 / Fold change vs veh, AEBP2 / RFU, SNHG1 /// SNORD22 /// SNORD25 /// SNORD26 /// SNORD27 /// SNORD28 /// SNORD29 /// SNORD31 / Fold change vs veh, SNHG1 /// SNORD22 /// SNORD25 /// SNORD26 /// SNORD27 /// SNORD28 /// SNORD29 /// SNORD31 / Fold change (Aza/veh), C12orf56 (ProbeSet 11735607_a_at) / Fold change (ACY-1035/veh), C12orf56 (ProbeSet 11735607_a_at) / Fold change (Aza/veh), FGFR1OP (ProbeSet 11751329_s_at) / Fold change (ACY-1035/veh), FGFR1OP (ProbeSet 11751329_s_at) / Fold change (Aza/veh), VPS36 (ProbeSet 11739960_a_at) / Fold change (ACY-1035/veh), VPS36 (ProbeSet 11739960_a_at) / RFU SYPL1 (11715823_x_at) / Fold change /veh SYPL1 (11715823_x_at) / RFU IGFBP7 (11715501_s_at) / Fold change /veh IGFBP7 (11715501_s_at) / RFU REEP3 (11722064_at) / Fold change /veh REEP3 (11722064_at) / RFU IGLL1 (11728026_x_at) / Fold change /veh IGLL1 (11728026_x_at): dose or concentration left out as unconfirmed
Details: ProbeSet 11724526_at; LIST B

Nc1ccc(-c2cccs2)cc1NC(=O)c1ccc2c(c1)cc(C1CC1)n2CCN1CCOCC1 [ACY-1035]
Fold change vs veh, FAHD1: 1.05
